Legend:
[1] = molecular target: T1, Amine oxidase [flavin-containing] A (Homo sapiens, UniProt P21397); assay: Inhibition of recombinant human MAOA using p-tyramine as substrate assessed as H2O2 production preincubated for 15 mins followed by substrate addition by fluorometric analysis
T1 sequence (P21397 whole entry): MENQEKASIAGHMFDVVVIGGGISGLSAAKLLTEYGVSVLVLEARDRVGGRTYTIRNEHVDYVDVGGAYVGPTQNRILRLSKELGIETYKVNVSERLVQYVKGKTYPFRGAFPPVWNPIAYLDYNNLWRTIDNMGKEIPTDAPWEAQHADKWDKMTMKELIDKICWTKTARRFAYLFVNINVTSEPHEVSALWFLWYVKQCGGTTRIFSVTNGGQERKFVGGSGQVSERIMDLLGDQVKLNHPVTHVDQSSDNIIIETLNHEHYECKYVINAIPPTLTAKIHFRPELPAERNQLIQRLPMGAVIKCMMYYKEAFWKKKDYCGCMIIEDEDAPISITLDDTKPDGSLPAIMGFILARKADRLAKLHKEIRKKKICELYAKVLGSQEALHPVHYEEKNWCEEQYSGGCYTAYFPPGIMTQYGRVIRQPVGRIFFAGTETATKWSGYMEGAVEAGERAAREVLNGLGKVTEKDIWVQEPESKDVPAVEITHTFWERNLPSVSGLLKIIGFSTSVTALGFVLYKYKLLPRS

[2] = molecular target: T2, Amine oxidase [flavin-containing] B (Homo sapiens, UniProt P27338); assay: Inhibition of recombinant human MAOB using p-tyramine as substrate assessed as H2O2 production preincubated for 15 mins followed by substrate addition by fluorometric analysis
T2 sequence (P27338 whole entry): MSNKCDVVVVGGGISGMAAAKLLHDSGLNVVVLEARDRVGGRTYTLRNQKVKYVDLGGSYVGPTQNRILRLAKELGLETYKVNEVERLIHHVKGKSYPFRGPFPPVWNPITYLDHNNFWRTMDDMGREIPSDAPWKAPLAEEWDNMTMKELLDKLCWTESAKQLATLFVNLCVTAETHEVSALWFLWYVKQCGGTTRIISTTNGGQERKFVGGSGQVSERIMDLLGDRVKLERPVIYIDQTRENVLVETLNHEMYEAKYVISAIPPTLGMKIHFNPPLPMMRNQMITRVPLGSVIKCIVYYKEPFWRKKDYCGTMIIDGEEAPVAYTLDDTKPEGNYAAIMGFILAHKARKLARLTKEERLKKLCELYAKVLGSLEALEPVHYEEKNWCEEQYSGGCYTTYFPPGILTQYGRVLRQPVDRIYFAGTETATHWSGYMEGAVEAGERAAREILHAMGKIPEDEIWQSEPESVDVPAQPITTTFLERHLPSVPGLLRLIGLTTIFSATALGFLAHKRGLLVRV

Homo sapiens [3] = species on record: Homo sapiens; assay: Selectivity ratio of IC50 for recombinant human MAOB to IC50 for recombinant human MAOA
Homo sapiens [4] = species on record: Homo sapiens; assay: Selectivity ratio of IC50 for recombinant human MAOA to IC50 for recombinant human MAOB
[5] = Toxicity in SPF Kuming mouse assessed as death at 500 to 1000 mg/kg, po measured up to 14 days; format: organism-based; settings: in vivo

IC50 [1]	IC50 [2]	Ratio IC50 (Homo sapiens [3])	Ratio IC50 (Homo sapiens [4])	SMILES	LD50 at 336 h [5]
> 60 µM	> 60 µM			COc1ccc(/C=C/c2cc(OC)cc(OC)c2/C=C/C(=O)c2cc3cccc(Br)c3oc2=O)cc1	
44.3 µM	10.2 µM	0.23	4.36	COc1ccc(/C=C/c2cc(OC)cc(OC)c2/C=C/C(=O)c2cc3cc(F)ccc3oc2=O)cc1	
	> 60 µM			COc1ccc(/C=C/c2cc(OC)cc(OC)c2/C=C/C(=O)c2cc3ccc(N(C)C)cc3oc2=O)cc1	
> 60 µM	> 60 µM			COc1ccc(/C=C/c2cc(OC)cc(OC)c2/C=C/C(=O)c2cc3cc(Cl)ccc3oc2=O)cc1	
> 60 µM	7.36 µM	< 0.12	> 8.15	COc1ccc(/C=C/c2cc(OC)cc(OC)c2/C=C/C(=O)c2cc3ccc(Cl)cc3oc2=O)cc1	
> 60 µM	> 60 µM			COc1ccc(/C=C/c2cc(OC)cc(OC)c2/C=C/C(=O)c2cc3cc(OC)ccc3oc2=O)cc1	
5.3 µM	50.5 µM	9.53	0.1	C=CCc1cc(OC)c2oc(=O)c(C(=O)/C=C/c3c(/C=C/c4ccc(OC)cc4)cc(OC)cc3OC)cc2c1	
30.4 µM	5.09 µM	0.17	5.97	COc1ccc(/C=C/c2cc(OC)cc(OC)c2/C=C/C(=O)c2cc3cc(C)ccc3oc2=O)cc1	
7.07 µM	48.1 µM	6.8	0.15	CCOc1ccc2cc(C(=O)/C=C/c3c(/C=C/c4ccc(OC)cc4)cc(OC)cc3OC)c(=O)oc2c1	
> 60 µM	> 60 µM			COc1ccc(/C=C/c2cc(OC)cc(OC)c2/C=C/C(=O)c2cc3cc(Br)cc(OC)c3oc2=O)cc1	
> 60 µM	20 µM	< 0.33	> 3	COc1ccc(/C=C/c2cc(OC)cc(OC)c2/C=C/C(=O)c2cc3cccc(C)c3oc2=O)cc1	
> 60 µM	22.4 µM	< 0.37	> 2.68	COc1ccc(/C=C/c2cc(OC)cc(OC)c2/C=C/C(=O)c2cc3cccc(OC)c3oc2=O)cc1	
> 60 µM	4.2 µM	< 0.07	> 14.3	COc1ccc(/C=C/c2cc(OC)cc(OC)c2/C=C/C(=O)c2cc3ccc(OC)cc3oc2=O)cc1	
41.7 µM	9.17 µM	0.22	4.54	COc1ccc(/C=C/c2cc(OC)cc(OC)c2/C=C/C(=O)c2cc3ccccc3oc2=O)cc1	
12.1 µM	> 60 µM	> 4.95	< 0.2	COc1ccc(/C=C/c2cc(OC)cc(OC)c2/C=C/C(=O)c2cc3cc(Br)ccc3oc2=O)cc1	
3.01 µM	55.3 µM	18.4	0.05	COc1ccc(/C=C/c2cc(OC)cc(OC)c2/C=C/C(=O)c2cc3ccc(Br)cc3oc2=O)cc1	
21.2 µM	35.5 µM	1.67	0.6	COc1ccc(/C=C/c2cc(OC)cc(OC)c2/C=C/C(=O)c2cc3c(OC)cc(OC)cc3oc2=O)cc1	
> 60 µM	14.5 µM	< 0.24	> 4.13	COc1ccc(/C=C/c2cc(OC)cc(OC)c2/C=C/C(=O)c2cc3c(OC)cccc3oc2=O)cc1	

SMILES	IC50 [1]	IC50 [2]	Ratio IC50 (Homo sapiens [3])	Ratio IC50 (Homo sapiens [4])	LD50 at 336 h [5]
COc1ccc(/C=C/c2cc(OC)cc(OC)c2/C=C/C(=O)c2cc3ccc(C)cc3oc2=O)cc1	58.2 µM	2.78 µM	0.05	20.9	> 1000 mg/kg
CCOc1cccc2cc(C(=O)/C=C/c3c(/C=C/c4ccc(OC)cc4)cc(OC)cc3OC)c(=O)oc12	3.2 µM	> 60 µM	> 18.8	< 0.05	> 1000 mg/kg

From ChEMBL document CHEMBL3627677, “Novel 2H-chromen-2-one derivatives of resveratrol: Design, synthesis, modeling and use as human monoamine oxidase inhibitors” (Eur J Med Chem, 2015)
